From patent publication US20060073189A1, “Chewing gums, lozenges, candies, tablets, liquids, and sprays for efficient delivery of medications and dietary supplements” (priority 2000, published 2006)

Assay: pKa and ionisation of active ingredients
Type: physicochemical
Details: at a pH of 8.3

ionized: 50%
SMILES: CN(C)CCOC(c1ccccc1)c1ccccc1 [diphenhydramine]
